Calls of active or inactive are those of the source. No cut-off for these calls is given here.
How the values were obtained:
MCF7 = experiment: Antiproliferative activity against human MCF7 cells after 48 hrs by MTT assay; assay type: functional, cell-based; settings: MCF7, 48 h
Bel-7402 [1] = experiment: Antiproliferative activity against human Bel7402 cells after 48 hrs by MTT assay; assay type: functional, cell-based; settings: for IC50: Bel-7402, 48 h
A549 = experiment: Antiproliferative activity against human A549 cells after 48 hrs by MTT assay; assay type: functional, cell-based; settings: A549, 48 h
SGC-7901 = experiment: Antiproliferative activity against human SGC7901 cells after 48 hrs by MTT assay; assay type: functional, cell-based; settings: SGC-7901, 48 h
HepG2 [2] = experiment: Antimigratory activity in human HepG2 cells assessed as cell migration at 20 uM incubated for 48 hrs by wound healing assay (reference value: 58%); assay type: functional
HepG2 [3] = experiment: Antimigratory activity in human HepG2 cells assessed as cell migration at 10 uM incubated for 48 hrs by wound healing assay (reference value: 58%); assay type: functional
Bel-7402 [4] = experiment: Upregulation of E-cadherin in human Bel7402 cells after 48 hrs by Western blot analysis; assay type: functional, cell-based
HepG2 [5] = experiment: Upregulation of P27 in human HepG2 cells at 5 to 20 uM after 24 hrs by Western blot analysis; assay type: functional, cell-based
Bel-7402 [6] = experiment: Antiproliferative activity against human Bel7402 cells at 5 to 40 uM by MTT assay; assay type: functional, cell-based; settings: TDE = time-dependent effect
HepG2 [7] = experiment: Cell cycle arrest in human HepG2 cells assessed as accumulation at G1 phase after 24 hrs by propidium iodide staining-based flow cytometry; assay type: functional
HepG2 [8] = experiment: Antiproliferative activity against human HepG2 cells after 48 hrs by MTT assay; assay type: functional, cell-based
Bel-7402 [9] = experiment: Antimigratory activity in human Bel7402 cells assessed as cell migration at 10 uM incubated for 48 hrs by wound healing assay (reference value: 60%); assay type: functional
HepG2 [10] = experiment: Cell cycle arrest in human HepG2 cells assessed as accumulation at G1 phase at 20 uM after 24 hrs by propidium iodide staining-based flow cytometry (reference value: 48%); assay type: functional
HepG2 [11] = experiment: Cell cycle arrest in human HepG2 cells assessed as accumulation at G1 phase at 10 uM after 24 hrs by propidium iodide staining-based flow cytometry (reference value: 48%); assay type: functional
Bel-7402 [12] = experiment: Cell cycle arrest in human Bel7402 cells assessed as accumulation at G1 phase at 20 uM after 24 hrs by propidium iodide staining-based flow cytometry (reference value: 49%); assay type: functional
HepG2 [13] = experiment: Upregulation of E-cadherin in human HepG2 cells after 48 hrs by Western blot analysis; assay type: functional, cell-based
Bel-7402 [14] = experiment: Upregulation of P27 in human Bel7402 cells at 5 to 20 uM after 24 hrs by Western blot analysis; assay type: functional, cell-based
HepG2 [15] = experiment: Antiproliferative activity against human HepG2 cells at 5 to 40 uM by MTT assay; assay type: functional, cell-based; settings: TDE = time-dependent effect
Bel-7402 [16] = experiment: Cell cycle arrest in human Bel7402 cells assessed as accumulation at G1 phase after 24 hrs by propidium iodide staining-based flow cytometry; assay type: functional
Bel-7402 [17] = experiment: Upregulation of P21 in human Bel7402 cells at 5 to 20 uM after 24 hrs by Western blot analysis; assay type: functional, cell-based
HepG2 [18] = experiment: Downregulation of N-cadherin in human HepG2 cells after 48 hrs by Western blot analysis; assay type: functional, cell-based
Bel-7402 [19] = experiment: Antimigratory activity in human Bel7402 cells assessed as cell migration at 20 uM incubated for 48 hrs by wound healing assay (reference value: 60%); assay type: functional
Bel-7402 [20] = experiment: Downregulation of N-cadherin in human Bel7402 cells after 48 hrs by Western blot analysis; assay type: functional, cell-based
HepG2 [21] = experiment: Upregulation of P21 in human HepG2 cells at 5 to 20 uM after 24 hrs by Western blot analysis; assay type: functional, cell-based
Bel-7402 [22] = experiment: Cell cycle arrest in human Bel7402 cells assessed as accumulation at G1 phase at 10 uM after 24 hrs by propidium iodide staining-based flow cytometry (reference value: 49%); assay type: functional

Compound `COc1ccc2c(=O)c3c(oc2c1)N1C[C@@H]2CCCN4CCC[C@@H]([C@H]24)[C@H]1CC3` has an IC50 (MCF7) of 77.4 µM, an IC50 (Bel-7402 [1]) of 48 µM and an IC50 (A549) of 97.6 µM. It also gave an IC50 (SGC-7901) of 67.2 µM.

Compound `COc1cccc2c(=O)c3c(oc12)N1C[C@@H]2CCCN4CCC[C@@H]([C@H]24)[C@H]1CC3` has an IC50 (MCF7) of 75.4 µM, an IC50 (Bel-7402 [1]) of 71.9 µM and an IC50 (A549) of 96.5 µM. For the same compound, the IC50 (SGC-7901) was 81.6 µM.

`O=c1c2c(oc3cc(O)ccc13)N1C[C@@H]3CCCN4CCC[C@@H]([C@H]34)[C@H]1CC2` was tested, and the IC50 (MCF7) was greater than 100 µM, the IC50 (Bel-7402 [1]) was greater than 100 µM and the IC50 (A549) was greater than 100 µM. It also gave an IC50 (SGC-7901) greater than 100 µM.

`Cc1ccc2c(=O)c3c(oc2c1)N1C[C@@H]2CCCN4CCC[C@@H]([C@H]24)[C@H]1CC3` was tested, and the IC50 (MCF7) was 48.6 µM, the IC50 (Bel-7402 [1]) was 30.3 µM and the IC50 (A549) was 52.9 µM. For the same compound, the IC50 (SGC-7901) was 46.8 µM.

`O=c1c2c(oc3ccc(O)cc13)N1C[C@@H]3CCCN4CCC[C@@H]([C@H]34)[C@H]1CC2` showed an IC50 (MCF7) greater than 100 µM, an IC50 (Bel-7402 [1]) greater than 100 µM and an IC50 (A549) greater than 100 µM. For the same compound, the IC50 (SGC-7901) was greater than 100 µM.

For `O=c1c2c(oc3ccc(Cl)cc13)N1C[C@@H]3CCCN4CCC[C@@H]([C@H]34)[C@H]1CC2`, the IC50 (MCF7) was 48.2 µM, the IC50 (Bel-7402 [1]) was 36.2 µM and the IC50 (A549) was 57 µM. It also gave an IC50 (SGC-7901) of 45.2 µM.

With `Cc1ccc2oc3c(c(=O)c2c1)CC[C@@H]1[C@H]2CCCN4CCC[C@@H](CN31)[C@@H]24` the IC50 (MCF7) was 57.1 µM, the IC50 (Bel-7402 [1]) was 37 µM and the IC50 (A549) was 97.2 µM. The IC50 (SGC-7901) was 40.5 µM.

`COc1cccc2oc3c(c(=O)c12)CC[C@@H]1[C@H]2CCCN4CCC[C@@H](CN31)[C@@H]24` showed an IC50 (MCF7) of 74.1 µM, an IC50 (Bel-7402 [1]) of 69.5 µM and an IC50 (A549) of 93.5 µM. The IC50 (SGC-7901) was 81.7 µM.

`O=c1c2c(oc3cc(Cl)ccc13)N1C[C@@H]3CCCN4CCC[C@@H]([C@H]34)[C@H]1CC2` was tested, and the Activity (HepG2 [2]) was 83%, the Activity (HepG2 [3]) was 80% and the Activity (Bel-7402 [4]) was “Dose-dependent effect”. The Activity (HepG2 [5]) was “Active”, the Activity (Bel-7402 [6]) was “Tde” and the Activity (HepG2 [7]) was “Dose-dependent effect”. The Activity (HepG2 [8]) was “Dose-dependent effect”, the Activity (Bel-7402 [9]) was 75% and the Activity (HepG2 [10]) was 65%. It also gave an IC50 (MCF7) of 28.1 µM, an IC50 (Bel-7402 [1]) of 25.2 µM and an Activity (HepG2 [11]) of 54%. For the same compound, the Activity (Bel-7402 [12]) was 79%, the IC50 (A549) was 36 µM and the Activity (HepG2 [13]) was “Dose-dependent effect”. The Activity (Bel-7402 [14]) was “Active”, the Activity (HepG2 [15]) was “Tde” and the Activity (Bel-7402 [16]) was “Dose-dependent effect”. For the same compound, the Activity (Bel-7402 [17]) was “Active”, the Activity (HepG2 [18]) was “Dose-dependent effect” and the Activity (Bel-7402 [19]) was 85%. For the same compound, the Activity (Bel-7402 [20]) was “Dose-dependent effect”, the Activity (HepG2 [21]) was “Active” and the Activity (Bel-7402 [22]) was 67%. The IC50 (SGC-7901) was 28.9 µM.

`O=c1c2c(oc3cccc(O)c13)N1C[C@@H]3CCCN4CCC[C@@H]([C@H]34)[C@H]1CC2` was tested, and the IC50 (MCF7) was greater than 100 µM, the IC50 (Bel-7402 [1]) was greater than 100 µM and the IC50 (A549) was greater than 100 µM. It also gave an IC50 (SGC-7901) greater than 100 µM.

For `O=c1c2c(oc3cc(C(F)(F)F)ccc13)N1C[C@@H]3CCC[N+]4([O-])CCC[C@@H]([C@H]34)[C@H]1CC2` (stereo partly specified), the IC50 (MCF7) was 73.8 µM, the IC50 (Bel-7402 [1]) was 66 µM and the IC50 (A549) was 114 µM. It also gave an IC50 (SGC-7901) of 79.1 µM.

With `O=C1CCC[C@@H]2[C@H]3CCCN4CCC[C@@H](CN12)[C@@H]34` [MATRINE] the IC50 (MCF7) was 2500 µM, the Activity (Bel-7402 [1]) was “Dose-dependent effect” and the IC50 (Bel-7402 [1]) was 2060 µM. The IC50 (A549) was 3920 µM and the IC50 (SGC-7901) was 1380 µM.

In the case of `O=c1c2c(oc3ccccc13)N1C[C@@H]3CCCN4CCC[C@@H]([C@H]34)[C@H]1CC2`, the IC50 (MCF7) is reported as greater than 100 µM, the IC50 (Bel-7402 [1]) is reported as greater than 100 µM and the IC50 (A549) is reported as greater than 100 µM. For the same compound, the IC50 (SGC-7901) was greater than 100 µM.

In the case of `Cc1cccc2c(=O)c3c(oc12)N1C[C@@H]2CCCN4CCC[C@@H]([C@H]24)[C@H]1CC3`, the IC50 (MCF7) is reported as 52.9 µM, the IC50 (Bel-7402 [1]) is reported as 40.7 µM and the IC50 (A549) is reported as 73.2 µM. The IC50 (SGC-7901) was 51.5 µM.

In the case of `O=c1c2c(oc3cc(C(F)(F)F)ccc13)N1C[C@@H]3CCCN4CCC[C@@H]([C@H]34)[C@H]1CC2`, the IC50 (MCF7) is reported as 30.7 µM, the IC50 (Bel-7402 [1]) is reported as 31.4 µM and the IC50 (A549) is reported as 41.2 µM. For the same compound, the IC50 (SGC-7901) was 34.9 µM.

`Cc1ccc2c(=O)c3c(oc2c1)N1C[C@@H]2CCC[N+]4([O-])CCC[C@@H]([C@H]24)[C@H]1CC3` (stereo partly specified) was tested, and the IC50 (MCF7) was 53.3 µM, the IC50 (Bel-7402 [1]) was 49.3 µM and the IC50 (A549) was 73.8 µM. It also gave an IC50 (SGC-7901) of 57.1 µM.

— ChEMBL document CHEMBL4477244, “Synthesis and biological evaluation of matrine derivatives as anti-hepatocellular cancer agents” (Bioorg Med Chem Lett, 2016)
